Structures can show the parent of a compound that is named as a salt.
The molecules below were run on Acinetobacter baumannii ATCC17961 (assay: Antimicrobial susceptibility testing: 90% growth inhibitory concentration (IC90) determination in Iso-Sensitest broth, OD600 growth). Conditions: Acinetobacter baumannii, ATCC17961, 16 h, read-out: A. baumannii ATCC 17961 IC90 (uM), strain ATCC 17961, OD600 growth over 16 h.
Type: cell-based
Outline: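 Serial twofold dilution, 10 points, e.g. 50–0.097 μM final; ~5×10^(5) CFU/ml; 35±2° C, 16 h; kinetic OD600 every 20 min; IC90 from log-phase inhibition.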

Row | SMILES | IC90
1 | CCc1cc(Nc2nccn3c(-c4c[nH]nc4C(F)(F)F)cnc23)ccc1C(=O)NCCNC(=O)CN [Example 691, N-(2-(2-aminoacetamido)ethyl)-2-ethyl-4-((3-(3-(trifluoromethyl)-1H-pyrazol-4-yl)imidazo [1,2-a]pyrazin-8-yl)amino)benzamide formate] | 0.352 µM
2 | CN(C)CCNC(=O)CNC(=O)c1ccc(Nc2nccn3c(-c4cn(CC#N)nc4C(F)(F)F)cnc23)cc1Cl [Example 693, 2-chloro-4-[[3-[1-(cyanomethyl)-3-(trifluoromethyl)pyrazol-4-yl]imidazo[1,2-a]pyrazin-8-yl]amino]-N-[2-[2-(dimethylamino)ethylamino]-2-oxo-ethyl]benzamide formate] | 0.358 µM
3 | Cc1cc(Nc2nccn3c(-c4cn(CC#N)nc4C(F)(F)F)cnc23)cc(F)c1C(=O)N1CCN(C(=O)CN)CC1 [Example 695, 2-(4-(8-((3-fluoro-4-(4-glycylpiperazine-1-carbonyl)-5-methylphenyl)amino)imidazo[1,2-a]pyrazin-3-yl)-3-(trifluoromethyl)-1H-pyrazol-1-yl) acetonitrile formate] | 0.362 µM
4 | CCc1cc(Nc2nccn3c(-c4c[nH]nc4C(F)(F)F)cnc23)ccc1C(=O)NCCNC(=O)[C@@H](C)N [Example 696, (R)-N-(2-(2-aminopropanamido)ethyl)-2-ethyl-4-((3-(3-(trifluoromethyl)-1H-pyrazol-4-yl)imidazo [1,2-a]pyrazin-8-yl)amino)benzamide formate] | 0.37 µM
5 | CCc1cc(Nc2nccn3c(-c4cn(CC#N)nc4C(F)(F)F)cnc23)ccc1C(=O)N[C@H](C)C(=O)N1CCC(N)CC1 [Example 697, N-[(1R)-2-(4-amino-1-piperidyl)-1-methyl-2-oxo-ethyl]-4-[[3-[1-(cyanomethyl)-3-(trifluoromethyl)pyrazol-4-yl]imidazo[1,2-a]pyrazin-8-yl]amino]-2-ethyl-benzamide formate] | 0.371 µM

Same assay, conditions: Acinetobacter baumannii, ATCC17961, 16 h, strain ATCC 17961, OD600 growth over 16 h, read-out: A. baumannii ATCC 17961 IC90

Row | IC90 | SMILES
6 | 0.356 µM | Cc1cc(Nc2nccn3c(-c4cn(CC(F)F)nc4C(F)(F)F)cnc23)cc(F)c1C(=O)N1CCN(C(=O)[C@H]2[C@@H]3CNC[C@@H]32)CC1 [Example 692, (4-((1R,5S,6r)-3-azabicyclo[3.1.0]hexane-6-carbonyl)piperazin-1-yl)(4-((3-(1-(2,2-difluoroethyl)-3-(trifluoromethyl)-1H-pyrazol-4-yl)imidazo[1,2-a]pyrazin-8-yl)amino)-2-fluoro-6-methylphenyl)methanone]
7 | 0.358 µM | C#CCn1cc(-c2cnc3c(Nc4ccc(C(=O)N5CCN(C(=O)[C@H](C)N)CC5)c(CC)c4)nccn23)c(C(F)F)n1 [Example 694, (S)-2-amino-1-(4-(4-((3-(3-(difluoromethyl)-1-(prop-2-yn-1-yl)-1H-pyrazol-4-yl)imidazo[1,2-a]pyrazin-8-yl)amino)-2-ethylbenzoyl)piperazin-1-yl)propan-1-one]
8 | 0.374 µM | Cc1cc(Nc2nccn3c(-c4cn(CC(F)F)nc4C(F)(F)F)cnc23)cc(F)c1C(=O)N1CCN(C(=O)[C@@H]2C[C@@H](O)CN2)CC1 [Example 698, (4-(4-((3-(1-(2,2-difluoroethyl)-3-(trifluoromethyl)-1H-pyrazol-4-yl)imidazo[1,2-a]pyrazin-8-yl)amino)-2-fluoro-6-methylbenzoyl)piperazin-1-yl)((2S,4R)-4-hydroxypyrrolidin-2-yl)methanone]
9 | 0.38 µM | Cc1cc(Nc2nccn3c(-c4cn(CC#N)nc4C(F)(F)F)cnc23)cc(F)c1C(=O)N1CCN(C(=O)[C@H]2C[C@@H](N)C2)CC1 [Example 699, 2-(4-(8-((4-(4-((1s,3s)-3-aminocyclobutane-1-carbonyl)piperazine-1-carbonyl)-3-fluoro-5-methylphenyl)amino)imidazo[1,2-a]pyrazin-3-yl)-3-(trifluoromethyl)-1H-pyrazol-1-yl) acetonitrile formate]

Source: patent US20230203043A1, “NOVEL IMIDAZOPYRAZINE DERIVATIVES” (Hoffmann-La Roche Inc., priority 2020, published 2023)
